From PubChem BioAssay (NCI)
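Results reflect a 48-hour exposure of cells in 96-well plates to compound at five concentrations. GI50: concentration for 50% inhibition of growth. Definition used: TGI = concentration required for complete inhibition of growth.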

Tests used:
Assay in all cases: growth of human tumour cells (NCI), 48 h; in the data active = GI50 below about 0.43 µM; inactive = the rest
SF-295 CNS = tested on: SF-295 CNS
M14 melanoma = tested on: M14 melanoma
HCT-15 colon = tested on: HCT-15 colon
MDA-MB-231 breast = tested on: MDA-MB-231 breast
HL-60(TB) leukemia = tested on: HL-60(TB) leukemia
HT29 colon = tested on: HT29 colon
SR leukemia = tested on: SR leukemia
MOLT-4 leukemia = tested on: MOLT-4 leukemia
SNB-19 CNS = tested on: SNB-19 CNS
RPMI-8226 leukemia = tested on: RPMI-8226 leukemia
CAKI-1 renal = tested on: CAKI-1 renal
NCI-H226 lung = tested on: NCI-H226 lung
NCI-H460 lung = tested on: NCI-H460 lung
SN12C renal = tested on: SN12C renal
ACHN renal = tested on: ACHN renal
CCRF-CEM leukemia = tested on: CCRF-CEM leukemia
A498 renal = tested on: A498 renal
OVCAR-3 ovarian = tested on: OVCAR-3 ovarian
RXF 393 renal = tested on: RXF 393 renal
MALME-3M melanoma = tested on: MALME-3M melanoma
DU-145 prostate = tested on: DU-145 prostate
HOP-92 NSCLC = tested on: HOP-92 NSCLC
786-0 renal = tested on: 786-0 renal
SF-268 CNS = tested on: SF-268 CNS
SW-620 colon = tested on: SW-620 colon
BT-549 breast = tested on: BT-549 breast
U251 CNS = tested on: U251 CNS
HOP-62 NSCLC = tested on: HOP-62 NSCLC
SNB-75 CNS = tested on: SNB-75 CNS
KM12 colon = tested on: KM12 colon
UO-31 renal = tested on: UO-31 renal
PC-3 prostate = tested on: PC-3 prostate
SK-MEL-28 melanoma = tested on: SK-MEL-28 melanoma
HCC-2998 colon = tested on: HCC-2998 colon
LOX IMVI melanoma = tested on: LOX IMVI melanoma
SK-OV-3 ovarian = tested on: SK-OV-3 ovarian
SF-539 CNS = tested on: SF-539 CNS
MDA-MB-435 = tested on: MDA-MB-435
MCF7 breast = tested on: MCF7 breast
HCT-116 colon = tested on: HCT-116 colon
EKVX NSCLC = tested on: EKVX NSCLC
UACC-62 melanoma = tested on: UACC-62 melanoma
OVCAR-8 ovarian = tested on: OVCAR-8 ovarian
NCI/ADR-RES ovarian = tested on: NCI/ADR-RES ovarian
HS 578T breast = tested on: HS 578T breast
SK-MEL-5 melanoma = tested on: SK-MEL-5 melanoma
SK-MEL-2 melanoma = tested on: SK-MEL-2 melanoma
NCI-H522 lung = tested on: NCI-H522 lung
K-562 leukemia = tested on: K-562 leukemia
T-47D breast = tested on: T-47D breast
OVCAR-5 ovarian = tested on: OVCAR-5 ovarian
A549 NSCLC = tested on: A549 NSCLC
TK-10 renal = tested on: TK-10 renal
IGROV1 ovarian = tested on: IGROV1 ovarian
OVCAR-4 ovarian = tested on: OVCAR-4 ovarian
COLO 205 colon = tested on: COLO 205 colon
UACC-257 melanoma = tested on: UACC-257 melanoma

Cc1ccc(-c2nc(C(Cl)Cl)nc3cc(-c4ccccc4)nn23)cc1
31.5 µM: TGI (OVCAR-3 ovarian)
98 µM: TGI (MDA-MB-435)
62.3 µM: TGI (HOP-62 NSCLC)
35.2 µM: TGI (HT29 colon)
20 µM: TGI (HCC-2998 colon)
58.9 µM: TGI (MALME-3M melanoma)
31.8 µM: TGI (ACHN renal)
72.3 µM: TGI (HCT-15 colon)
38.9 µM: TGI (A498 renal)
24 µM: TGI (RXF 393 renal)
42.8 µM: TGI (NCI-H522 lung)
50.2 µM: TGI (M14 melanoma)
30.3 µM: TGI (NCI-H460 lung)
71.2 µM: TGI (SF-295 CNS)
73.1 µM: TGI (OVCAR-4 ovarian)
58.3 µM: TGI (CAKI-1 renal)
34.1 µM: TGI (U251 CNS)
23.4 µM: TGI (COLO 205 colon)
29.7 µM: TGI (DU-145 prostate)
96.7 µM: TGI (MOLT-4 leukemia)
66.4 µM: TGI (KM12 colon)
28.1 µM: TGI (A549 NSCLC)
inactive: GI50 (SF-295 CNS) 24 µM | GI50 (M14 melanoma) 20.6 µM | GI50 (HCT-15 colon) 10.5 µM | GI50 (MDA-MB-231 breast) 20.5 µM | GI50 (HL-60(TB) leukemia) 6.5 µM | GI50 (HT29 colon) 7.41 µM | GI50 (SR leukemia) 9.91 µM | GI50 (MOLT-4 leukemia) 18.2 µM | GI50 (SNB-19 CNS) 19.7 µM | GI50 (RPMI-8226 leukemia) 35.9 µM | GI50 (CAKI-1 renal) 16.2 µM | GI50 (NCI-H226 lung) 75.2 µM | GI50 (NCI-H460 lung) 7.26 µM | GI50 (SN12C renal) 98.9 µM | GI50 (ACHN renal) 7.54 µM | GI50 (CCRF-CEM leukemia) 47.7 µM | GI50 (A498 renal) 17.4 µM | GI50 (OVCAR-3 ovarian) 13.4 µM | GI50 (RXF 393 renal) 10.6 µM | GI50 (MALME-3M melanoma) 23.3 µM | GI50 (DU-145 prostate) 4.21 µM | GI50 (HOP-92 NSCLC) 23.9 µM | GI50 (786-0 renal) > 100 µM | GI50 (SF-268 CNS) 24.6 µM | GI50 (SW-620 colon) 9.97 µM | GI50 (BT-549 breast) 30.7 µM | GI50 (U251 CNS) 9.5 µM | GI50 (HOP-62 NSCLC) 16.5 µM | GI50 (SNB-75 CNS) > 100 µM | GI50 (KM12 colon) 17.8 µM | GI50 (UO-31 renal) > 100 µM | GI50 (PC-3 prostate) 23.7 µM | GI50 (SK-MEL-28 melanoma) 27.2 µM | GI50 (HCC-2998 colon) 6.05 µM | GI50 (LOX IMVI melanoma) 22.4 µM | GI50 (SK-OV-3 ovarian) 20.9 µM | GI50 (SF-539 CNS) 61.1 µM | GI50 (MDA-MB-435) 25.3 µM | GI50 (MCF7 breast) 18.1 µM | GI50 (HCT-116 colon) 15.6 µM | GI50 (EKVX NSCLC) 17.8 µM | GI50 (UACC-62 melanoma) 81.8 µM | GI50 (OVCAR-8 ovarian) 15.3 µM | GI50 (NCI/ADR-RES ovarian) 13.5 µM | GI50 (HS 578T breast) 56.9 µM | GI50 (SK-MEL-5 melanoma) > 100 µM | GI50 (SK-MEL-2 melanoma) > 100 µM | GI50 (NCI-H522 lung) 14.5 µM | GI50 (K-562 leukemia) 22.4 µM | GI50 (T-47D breast) 28.3 µM | GI50 (OVCAR-5 ovarian) 24.2 µM | GI50 (A549 NSCLC) 10 µM | GI50 (TK-10 renal) 33.3 µM | GI50 (IGROV1 ovarian) 36.3 µM | GI50 (OVCAR-4 ovarian) 17.9 µM | GI50 (COLO 205 colon) 10.1 µM | GI50 (UACC-257 melanoma) 35.3 µM
57.8 µM: TGI (EKVX NSCLC)
55.8 µM: TGI (SW-620 colon)
90.1 µM: TGI (OVCAR-8 ovarian)
> 100 µM: TGI (MDA-MB-231 breast) | TGI (HL-60(TB) leukemia) | TGI (SR leukemia) | TGI (SNB-19 CNS) | TGI (RPMI-8226 leukemia) | TGI (NCI-H226 lung) | TGI (SN12C renal) | TGI (CCRF-CEM leukemia) | TGI (786-0 renal) | TGI (SF-268 CNS) | TGI (BT-549 breast) | TGI (SNB-75 CNS) | TGI (UO-31 renal) | TGI (PC-3 prostate) | TGI (LOX IMVI melanoma) | TGI (SF-539 CNS) | TGI (MCF7 breast) | TGI (HCT-116 colon) | TGI (UACC-62 melanoma) | TGI (NCI/ADR-RES ovarian) | TGI (HS 578T breast) | TGI (SK-MEL-5 melanoma) | TGI (SK-MEL-2 melanoma) | TGI (K-562 leukemia) | TGI (T-47D breast) | TGI (OVCAR-5 ovarian) | TGI (TK-10 renal) | TGI (IGROV1 ovarian) | TGI (UACC-257 melanoma)
74.6 µM: TGI (SK-MEL-28 melanoma)
58.7 µM: TGI (SK-OV-3 ovarian)
79.4 µM: TGI (HOP-92 NSCLC)
